PubChem BioAssay (NCI)
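Exposure lasted 48 hours, with cells grown in 96-well plates and compounds tested at five concentrations. GI50 is the concentration that inhibits growth by half. TGI marks complete inhibition of growth.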

Key:
Assay in all cases: DTP human tumour cell line panel, 48 h
[1] = system: 786-0 renal
[2] = system: ACHN renal
[3] = system: HL-60(TB) leukemia
[4] = system: HOP-92 NSCLC
[5] = system: LOX IMVI melanoma
[6] = system: NCI-H23 lung
[7] = system: NCI-H460 lung
[8] = system: RPMI-8226 leukemia
[9] = system: SR leukemia
[10] = system: HT29 colon

Compound	TGI [1] [µM]	TGI [2] [µM]	TGI [3] [µM]	TGI [4] [µM]	TGI [5] [µM]	TGI [6] [µM]	TGI [7] [µM]	TGI [8] [µM]	TGI [9] [µM]	TGI [10] [µM]	GI50 [1] [µM]	GI50 [2] [µM]	GI50 [3] [µM]	GI50 [4] [µM]	GI50 [10] [µM]	GI50 [5] [µM]	GI50 [6] [µM]	GI50 [8] [µM]	GI50 [9] [µM]	GI50 [7] [µM]
c1cnn(CN(Cn2cccn2)Cn2cccn2)c1	> 100	> 100	> 100	> 100	> 100	> 100	> 100	> 100	> 100	–	–	–	–	–	–	–	–	–	–	–
O=C(CCc1nc(=S)[nH][nH]1)Nc1ccccc1Cl	> 100	> 100	> 100	> 100	> 100	> 100	> 100	> 100	> 100	> 100	–	–	–	–	–	–	–	–	–	–
COC(=O)C(Cc1nc2ccccc2[nH]c1=O)C(NO)C(=O)Nc1c(Cl)cc([N+](=O)[O-])cc1Cl (stereo unspecified)	> 100	> 100	–	25.7	–	61.1	44.7	> 100	> 100	> 100	–	–	–	–	–	–	–	–	–	–
CC(=O)O[C@H]1CCC2[C@@H]3CC[C@]4(C)CC(=O)C=C[C@]4(C)C3CC[C@@]21C (stereo partly specified)	> 78.2	> 100	66.7	> 100	30.9	53.8	32	61.5	–	32.8	–	–	–	–	–	–	–	–	–	–
O=C(O)CNS(=O)(=O)c1ccc(NC(=O)c2ccc([N+](=O)[O-])cc2)cc1	> 100	> 100	> 100	> 100	> 100	> 100	> 100	> 100	–	> 100	–	–	–	–	–	–	–	–	–	–
COc1ccc(/C=C/c2c(C(=O)/C=C/c3ccccc3)c(C)nc3ccccc23)cc1	3.31	3.1	5.79	3.84	3.08	4.19	–	5.54	7.19	> 100	1.76	1.68	2.3	1.4	2.4	1.69	1.73	1.74	1.56	–
CC1=C(/C=C/Cl)CC(Cl)C(C)(Cl)C1 (stereo unspecified)	> 100	> 100	60.5	> 100	> 100	> 100	> 100	–	> 100	> 100	–	–	–	–	–	–	–	–	–	–
COC(=O)[C@@]12C(=O)C=CC(=O)C1C1C(=CC2C)OC2OC3(CCCCC3)OC21 (stereo partly specified)	32.4	30.6	15.7	–	42.8	39.9	35.7	26.4	–	44.9	–	–	–	–	–	–	–	–	–	–
O=C1c2ccccc2C(=O)C1(O)c1c[nH]c2ccccc12	> 100	–	> 100	> 100	> 100	> 100	> 100	> 100	> 100	> 100	–	–	–	–	–	–	–	–	–	–
C=CCCCCC/C=C\[C@@H](O)C#CC#C/C=C/CO	> 100	> 100	27.8	> 100	32.1	> 100	> 100	38.4	–	> 100	> 100	> 100	11.2	> 100	> 100	17.2	43.6	16.3	–	> 100
CCCCC(CC)COC(=O)C[N+](C)(C)CCOC(c1ccccc1)c1ccccc1 (stereo unspecified)	5.69	30.5	–	4.9	3.02	15.9	18.8	–	5.16	13.1	2.3	15	–	1.86	3.55	1.66	3.77	–	2.18	4.77
O=C1C2C3C=C4c5ccccc5N(c5ccccc5)C4(C2C(=O)N1c1ccc([N+](=O)[O-])cc1)[C@H]1C(=O)N(c2ccc([N+](=O)[O-])cc2)C(=O)[C@@H]31 (stereo partly specified)	> 100	> 100	> 100	> 100	> 100	> 100	> 100	> 100	–	> 100	–	–	–	–	–	–	–	–	–	–
Cc1nnc(NS(=O)(=O)c2ccc(N=Nc3cc(N=Nc4ccc(S(=O)(=O)Nc5nnc(C)s5)cc4)c4c(NC(=O)C(Cl)Cl)cccc4c3OC(=O)C(Cl)Cl)cc2)s1 (tested in a mixture with another compound)	> 100	–	42.4	> 100	> 100	49.5	> 100	21	–	> 100	–	–	–	–	–	–	–	–	–	–
C=C(C)CCN[Si](c1ccccc1)(c1ccccc1)C(C)(C)C	33.5	> 100	44.5	34.2	31.7	45.3	> 100	62.2	–	30.2	–	–	–	–	–	–	–	–	–	–
CCOC(=O)C(=O)Nc1ccccc1CC	> 100	> 100	> 100	> 100	> 100	> 100	> 100	> 100	–	> 100	–	–	–	–	–	–	–	–	–	–
CC(C)c1ccc(-c2cc(-c3cn[nH]c3-c3ccccn3)ccn2)cc1	> 25	> 25	> 25	> 25	> 25	> 25	> 25	> 25	–	> 19.6	> 18.8	18.5	11.4	1.99	6.92	14.6	11.7	11.9	–	7.64
CCOC(=O)C1CCN(S(=O)(=O)/N=C2/NC(=O)NC2=C(Cl)Cl)CC1	6.64	3.32	4.34	3.29	–	4.38	11.4	10.1	4.96	4.3	0.545	1.83	1.74	1.62	2.2	–	2.12	0.327	0.731	3.19
Cn1cc(C2(C)CC(C)(C)c3c2n(C)c2ccccc32)c2ccccc21 (stereo unspecified)	> 100	–	–	> 100	> 100	> 100	> 100	> 100	–	> 100	–	–	–	–	–	–	–	–	–	–
Clc1cc(Cl)c2ns[s+]c2c1Cl	> 100	> 100	> 100	–	> 100	85.2	> 100	–	> 100	> 100	–	–	–	–	–	–	–	–	–	–

Compound	TGI [1] [µM]	TGI [2] [µM]	TGI [3] [µM]	TGI [4] [µM]	TGI [5] [µM]	TGI [6] [µM]	TGI [7] [µM]	TGI [8] [µM]	TGI [9] [µM]	TGI [10] [µM]	GI50 [1] [µM]	GI50 [2] [µM]	GI50 [3] [µM]	GI50 [4] [µM]	GI50 [10] [µM]	GI50 [5] [µM]	GI50 [6] [µM]	GI50 [8] [µM]	GI50 [9] [µM]	GI50 [7] [µM]
COc1ccc(C(=O)c2cc(OC)c(OC)c(OC)c2)cc1/C=C/C(=O)c1ccc(F)cc1	5.57	3.23	> 100	34.9	–	31.1	52.7	6.98	95.7	5.63	2.15	1.68	4.8	2.7	2.44	–	6.2	2.32	2.04	16
COc1ccc(-c2nc3ccccn3c2/C=C/C(=O)c2cc(OC)c(OC)c(OC)c2)cc1OC	71	15.7	6.12	–	6.62	> 100	12.6	2.51	–	> 100	3.74	3.22	2.53	–	3.2	2.26	3.78	0.398	–	2.99
COc1ccc(-c2cc(-c3cc(C)cc(Br)c3O)no2)cc1	31.6	24	> 100	–	> 100	99.7	44.5	> 100	> 100	> 100	–	–	–	–	–	–	–	–	–	–
O=C(N/N=C/c1cc(Br)ccc1O)N/N=C/c1cc(Br)ccc1O	> 100	> 100	> 100	6.05	> 100	> 100	> 100	–	> 100	> 100	–	–	–	–	–	–	–	–	–	–
Cc1ccc(N=C/C=C(\Nc2ccc(C)cc2)c2ccc(Cl)cc2)cc1	28.7	> 100	–	33.1	> 100	32.3	60.6	> 100	> 100	> 100	11.1	14.5	–	14	4	5.58	11	3.53	2.32	6.38
CCOC(=O)/C(C)=C(/O)C(=O)OCC	> 100	> 100	> 100	> 100	> 100	> 100	> 100	> 100	–	> 100	–	–	–	–	–	–	–	–	–	–
Nc1ccccc1/C(O)=C1/CCOC1=O	> 100	> 100	> 100	> 100	–	> 100	> 100	> 100	> 100	> 100	–	–	–	–	–	–	–	–	–	–
NC(=O)c1cc(Cl)ccc1NC(=O)/C=C/c1ccccc1	> 34.8	> 100	4.4	> 43	> 100	> 100	> 100	> 100	–	> 100	3.86	4.75	1.28	9.88	2.22	4.33	5.62	2.86	–	3.09
COc1cc(/C=C/c2ccc(OC)c(O)c2)cc(OC)c1	32.7	41.2	4.43	29.4	34.2	12.5	14.1	9.92	–	32.3	–	–	–	–	–	–	–	–	–	–
CC12OC(C(=O)C13CC3)C1C(=O)c3ccc4c(ccc5ccccc54)c3C(=O)C12 (stereo unspecified)	> 100	–	> 100	> 100	–	> 100	55.6	–	–	> 100	25.3	–	33.2	27.5	55.9	–	24.2	–	–	15.6
COc1cc2c3c(n(CCCN)c(=O)c2cc1OC)-c1ccc(C#N)cc1C3=O	20.3	28.5	–	–	30	25.6	26.9	41.5	–	29.1	4.43	14.9	–	–	8.52	13.6	9.02	19.1	–	7.16
c1ccc(C2N3CCCCC3[C@@H]3c4[nH]c5ccccc5c4CCN23)nc1 (stereo partly specified)	> 100	> 100	> 100	> 100	–	> 100	> 100	> 100	–	> 100	–	–	–	–	–	–	–	–	–	–
CCOC(=O)N[C@@H]1C(CC(=O)OC)O[C@H]2OC(C)(C)O[C@H]21 (stereo partly specified)	> 100	> 100	> 100	> 100	> 100	> 100	> 100	> 100	–	> 100	–	–	–	–	–	–	–	–	–	–
N#Cc1cc(-c2cc3ccccc3o2)oc1N	22.5	11.1	> 100	–	12.5	22.8	10.6	5.04	3.1	11.3	4.74	3	3.85	–	3.35	2.87	3.9	1.46	0.764	3.03
Cc1cc(NC(=S)SCc2ccc(F)cc2)c([N+](=O)[O-])cc1C	> 100	> 100	45.4	68	–	99.4	> 100	–	43.9	34.6	–	–	–	–	–	–	–	–	–	–
O=C(Nc1ccccc1-c1nc2ccccc2[nH]c1=O)c1ccccc1	31	45	–	51.4	61.9	> 100	47.1	44.9	–	> 100	–	–	–	–	–	–	–	–	–	–
Nc1ccccc1C#C/C=C\C#Cc1ccccc1N	42.9	50.9	33.7	12.2	33.7	62.9	80.4	–	–	> 100	13.7	19.9	4.18	1.2	32	17.9	18.6	–	–	6.51
CCCC1=C(CC)C(C(=O)Nc2c(C)cccc2C)=NC(S)N1 (stereo unspecified)	> 100	> 100	> 100	> 100	–	> 100	> 100	> 100	> 100	> 100	–	–	–	–	–	–	–	–	–	–
